Test: in vitro
Conditions: human, hela cells, % viability

| Structure (SMILES) | viability at 28.5 h, 10 µM |
| --- | --- |
| NC(=O)c1ccc(NC(=O)CSc2nnc(-c3ccncc3)n2-c2ccc(Br)cc2)cc1 [CBK266202] | 103% |
| O=C(c1ccccc1)C1(CO)COCc2nccn21 (centres unmarked) [CBK009980] | 88.7% |
| O=C(CN(Cc1ccccc1)S(=O)(=O)c1ccc2c(c1)OCCO2)Nc1ccc2c(c1)OCCO2 [CBK262499] | 98.5% |
| Cn1cc(CN2CCCC(c3cccc(Cc4ccc(Cl)cc4)n3)C2)cn1 (centres unmarked) [CBK286242] | 81.8% |
| CCOC(=O)CN1CCC(Oc2nccnc2OCCN2CCOCC2)CC1 [CBK082929] | 103% |
| Cc1nc(-c2cccnc2)[nH]c(=O)c1CCC(=O)N1CC2CCC1C2 (centres unmarked) [CBK304198] | 82.3% |
| O=C(C(c1ccccc1)c1ccccc1)N1CCC2(CCNC2)C1 (centres unmarked) [CBK156729C] | 92.3% |
| CCOC(=O)N1CCN(Cc2nc3c(c(=O)n(C)c(=O)n3C)n2Cc2ccccc2C)CC1 [CBK269325] | 91.8% |
| O=c1[nH]c2ncc(-c3cccc(-c4ccccc4)c3)nc2n1CCCN1CCOCC1 [CBK064311] | 92.1% |
| COc1cc(C2C(C(=O)c3ccc(C)o3)=C(O)C(=O)N2Cc2cccnc2)cc(OC)c1OC (centres unmarked) [CBK264933] | 110% |
| CCn1cc(C2CN(S(=O)(=O)c3cc(C)c(OC)cc3C)CCO2)cn1 (centres unmarked) [CBK304225] | 84.9% |
| S=C1NC2c3ccccc3OC3(CCCCC23)N1 (centres unmarked) [CBK288506] | 102% |
| CCC(=O)N1CCC2(CC1)CNC(=O)c1cc(C)ccc1O2 [CBK282468] | 85.2% |
| COc1ccc(N(C(C)C(=O)NN=C2CCN(C)CC2)S(C)(=O)=O)cc1 (centres unmarked) [CBK262390] | 94.2% |
| CC(C)CN(CCc1ccc(O)cc1)CC(=O)NC1(c2ccccc2)CCC1 [CBK067781T] | 100% |
| COC(=O)C(C)CSc1ccc(C(C)(C)C)cc1 (centres unmarked) [CBK010499] | 107% |
| CC(c1ccc(Cl)cc1Cl)N(C)C(=O)c1ccc(S(C)(=O)=O)cc1 (centres unmarked) [CBK242418] | 113% |
| CC(C)c1ccc(C2C(C(=O)c3ccco3)=C(O)C(=O)N2CCCN(C)C)cc1 (centres unmarked) [CBK264549] | 94.8% |
| O=C(N/N=C/c1c[nH]c2ccc(Br)cc12)c1ccncc1 [CBK262798] | 116% |
| CC(C)(C)C(C#N)C(Oc1ccc(Cl)cc1)n1cncn1 (centres unmarked) [CBK023570] | 90.3% |
| O=C(Nc1cccc2nsnc12)c1ccc(Cl)cc1 [CBK263793] | 96.1% |

| Structure (SMILES) | viability at 28.5 h, 10 µM |
| --- | --- |
| COc1cc(/C=N/NC(=O)c2n[nH]c3c2CCC3)ccc1O [CBK262881] | 109% |
| O=C1COc2ccccc2C/C=C/CC2(CCN(C(=O)CCc3cccnc3)CC2)CN1 [CBK292127] | 90.8% |
| CC(C)c1ccc(N2C(=O)N[C@@H]3CCN(S(=O)(=O)c4ccccc4)[C@@H]3C2=O)cc1 [CBK289289] | 114% |
| O=C1Nc2ccccc2/C1=C/c1ccc(-c2cccc(C(=O)O)c2)o1 [CBK077952] | 89.4% |
| CC(CC(=O)N1CCC(Oc2ccccc2F)CC1)n1cccn1 (centres unmarked) [CBK282118] | 84.6% |
| CC(Sc1nc(-c2cccnc2)ccc1C#N)C(=O)O (centres unmarked) [CBK267452] | 90.7% |
| c1cc(-c2ccc(Nc3ccc(N4CCOCC4)cc3)nc2)cs1 [CBK036844] | 97.6% |
| Cc1cc(C)c(C)c(S(=O)(=O)NCCOCCO)c1C [CBK269153] | 88.6% |
| N#Cc1ccnc(N2CCC3(CCCN(CC4CCCCC4)C3=O)C2)c1 (centres unmarked) [CBK306561] | 96.9% |
| COC[C@@H]1CCCN1S(=O)(=O)c1ccc(OC(F)(F)F)cc1 [CBK044338] | 92.4% |
| O=C(O)CCC(=O)CCC(=O)c1cccs1 [CBK264807] | 94.2% |
| Fc1ccc(C2(CCCN3CCN(c4ccncc4)CC3)OCCO2)cc1 [CBK038887] | 111% |
| Cc1ccc(F)c(OC2(C(=O)O)CCN(Cc3ncc[nH]3)CC2)c1 [CBK307062] | 85.2% |
| Cc1cc(COc2nccnc2N2CCN(Cc3ccc([N+](=O)[O-])cc3)CC2)no1 [CBK084189] | 92% |
| Cc1noc(C)c1C(=O)NC1(c2ccc(F)cc2)CCCC1 [CBK284013] | 93.4% |
| Cn1[nH]c(COC(C)(C)C)c(Cc2c(Cl)cccc2Cl)c1=O [CBK093521] | 99.4% |
| OC(Cn1c(Cc2ccccc2)nc2ccccc21)Cn1c2ccccc2c2ccccc21 (centres unmarked) [CBK262570] | 95.2% |
| CC(Oc1cccc2cccnc12)C(=O)N/N=C/c1ccc(-c2ccc(Br)cc2)o1 (centres unmarked) [CBK262838] | 93.4% |
| COc1ccccc1CCNC(=O)c1cnccn1 [CBK268147] | 59.7% |
| O=C(O)c1ccc(Cl)c(S(=O)(=O)NCc2ccco2)c1 [CBK304575] | 105% |
| CCOC(=O)c1ccccc1NC(=O)n1ccc2c(N3CCNCC3)cccc21 [CBK003731C] | 50.8% |

| Structure (SMILES) | viability at 28.5 h, 10 µM |
| --- | --- |
| CCc1ccc2nc3c(cc2c1)CNCCO3 [CBK281940] | 91.6% |
| OCCN(CCO)c1cncc(-c2cccs2)n1 [CBK065766] | 95.4% |
| Cc1cccc(OCCNC(=O)CN2CCCC2c2cnn(C)c2)c1 (centres unmarked) [CBK305826] | 81% |
| COc1ccccc1CC(=O)N(Cc1nc(-c2cccc(C)c2)no1)C(C)C [CBK269345] | 95.7% |
| CN1CCN(NC(=O)CSc2ccccc2)CC1 [CBK268142] | 107% |
| Cc1cc(N2C(=O)c3ccc(Oc4ccc5c(c4)C(=O)N(c4cc(C)on4)C5=O)cc3C2=O)no1 [CBK266463] | 85.8% |
| CC12CCC(=O)N1CCCN2Cc1cnn(-c2ccc(F)cc2)c1 (centres unmarked) [CBK281819] | 94.2% |
| Cc1cccc(C(=O)Nc2ccccc2C(=O)Nc2cccc(C(=O)O)c2C)c1 [CBK265911] | 99.4% |
| Cc1c(NC(=O)CSc2ccc(Cl)cc2)cccc1-c1nc2ncccc2o1 [CBK268829] | 109% |
| O=S(=O)(N1CCCCC1)N1CCCN(S(=O)(=O)N2CCCCC2)CC1 [CBK268939] | 85.4% |
| FC(F)(F)c1ccc(CN2CCC(Oc3nccnc3OCc3cccnc3)CC2)cc1 [CBK083160T] | 91.6% |
| Cc1nnc(SCCCNC(=O)C2CC(=O)N(Cc3ccccn3)C2)s1 (centres unmarked) [CBK307529] | 101% |
| CC(C)NC(=O)[C@H]1CN2CCC1C[C@@H]2Cn1cc(C2(O)CCCCC2)nn1 (some centres unmarked) [CBK288732] | 99.3% |
| CC(C)c1ccc(NC(=O)CN2CCN(c3ccc(C(F)(F)F)cn3)CC2)cc1 [CBK086000] | 81.9% |
| CCCn1c(N)c(C(=O)CSc2ncnc3sc4c(c23)CCCC4)c(=O)[nH]c1=O [CBK297556] | 77.8% |
| O=[N+]([O-])c1ccc(-c2ccc(/C=C/c3cc(O)c4ccccc4n3)o2)cc1 [CBK267792] | 92.1% |
| Cc1ccc2c(C)nc(Nc3nc(CSc4nnc(C)s4)cc(=O)[nH]3)nc2c1 [CBK269027] | 87.1% |
| O=C(N[C@@H](Cc1ccc(OCc2ccc(Cl)cc2Cl)cc1)C(=O)O)C1CCCC1 [CBK017610] | 82.9% |
| COc1ccc([C@]23CC[C@H](NC(=O)Nc4ccc(F)cc4F)C[C@H]2N(C)CC3)cc1OC [CBK066917T] | 90.6% |
| O=C(O)c1[nH]c2ccccc2c1NS(=O)(=O)c1cc(F)c(Br)cc1F [CBK049885] | 62.8% |
